# Where two headings read alike, the source gives them in different places. Starred links: 1 amine or outer side, 2 acyl side, 3 side chain; linkers in the order of their positions; H or OH if unused. Residues, ends and D or L forms follow the SMILES beside them. Groups on a side chain read outwards from the residue. *: point of attachment. γGlu = O=C(O)[C@H](CCC(=O)[*:2])N[*:1]; C14 diacid = O=C(O)CCCCCCCCCCCCC(=O)*; AEEA = NCCOCCOCC(=O)O
# Columns and labels:
# human GLP-1 receptor [1] = target: T1, human GLP-1 receptor (Homo sapiens, UniProt P43220); experiment: In vitro potency, CRE luciferase reporter gene assay in BHK cells expressing the human GLP-1 receptor; type: cell-based; conditions: 3 h, 0% HSA, average of at least three replicates
# T1 construct: expressed in transfected cells; host or cells: membranes of BHK cells (parent BHKTS13), clone FCW467-12A
# T1 sequence (P43220 24-463): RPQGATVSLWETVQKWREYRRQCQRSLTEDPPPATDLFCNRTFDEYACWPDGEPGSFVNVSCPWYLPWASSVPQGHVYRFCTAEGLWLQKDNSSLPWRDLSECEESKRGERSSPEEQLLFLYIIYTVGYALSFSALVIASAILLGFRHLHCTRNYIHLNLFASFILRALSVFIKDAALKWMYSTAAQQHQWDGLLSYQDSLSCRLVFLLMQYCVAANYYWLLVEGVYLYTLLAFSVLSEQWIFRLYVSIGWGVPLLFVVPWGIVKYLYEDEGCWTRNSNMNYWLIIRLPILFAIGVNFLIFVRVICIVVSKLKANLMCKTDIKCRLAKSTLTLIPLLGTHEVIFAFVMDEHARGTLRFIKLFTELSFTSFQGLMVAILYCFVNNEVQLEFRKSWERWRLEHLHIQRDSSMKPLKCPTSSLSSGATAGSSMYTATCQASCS
# Method: When assay incubation is completed the luciferase substrate (luciferin) is added and the enzyme converts luciferin to oxyluciferin to produce bioluminescence. The luminescence is measured as the readout for the assay.
# The cells were cultured at 5% CO2 in cell culture medium. They were aliquoted and stored in liquid nitrogen. Before each assay an aliquot was taken up and washed twice in PBS before being suspended at the desired concentration in the assay specific buffer. For 96-well plates the suspension was made to give a final concentration of 5×10^3 cells/well.
# Assay medium consisted of DMEM w/o phenol red, 10 mM Hepes and 1× Glutamax. The assay buffer consisted of 2% w/v ovalbumin and 0.2% v/v Pluronic F-68 in assay medium.
# 3) Cells were counted and adjusted to 5×10^3 cells/50 μl (1×10^5 cells/ml) in assay medium. A 50 μl aliquot of cells was transferred to each well in the assay plate.
# 4) Stocks of the test compounds and reference compounds were diluted to a concentration of 0.2 μM in assay buffer. […] Compounds were tested at the following final concentrations: 1×10^−7 M, 1×10^−8 M; 1×10^−9 M, 1×10^−10 M, 1×10^−11 M, 1×10^−12 M, 1×10^−13 M, and 1×10^−14 M. 6) The assay plate was incubated for 3 h in a 5% CO2 incubator at 37° C. […] 8) A 100 μl aliquot of steadylite plus reagent was added to each well of the assay plate. 9) Each assay plate was covered with aluminum foil to protect it from light and shaken for 30 min at room temperature. 10) Each assay plate was read in a BioTek Synergy 2 Multi-Mode Reader. Calculations and Results
# The data from the BioTek Synergy 2 Multi-Mode Reader were transferred to GraphPad Prism software. The software performs a non-linear regression (log(agonist) vs. response (three parameters)).
# A minimum of three replicates were measured for each sample. The reported EC50 values are averages of the measured values for each compound.
# human GLP-1 receptor [2] = target: T1, human GLP-1 receptor; experiment: GLP-1 receptor binding, competitive binding assay with 125I-GLP-1 on isolated membranes (SPA)
# Method: The receptor binding is reported as the concentration at which half of the labelled ligand is displaced from the receptor, the IC50 value.
# Buffer 1 consisted of 20 mM Na-HEPES plus 10 mM EDTA and pH was adjusted to 7.4. Buffer 2 consisted of 20 mM Na-HEPES plus 0.1 mM EDTA and pH was adjusted to 7.4. Assay buffer consisted of 50 mM HEPES supplemented with 5 mM EGTA, 5 mM MgCl2, 0.005% w/v Tween 20 and pH was adjusted to 7.4. An 8% albumin stock consisted of HSA dissolved at 8% (w/v) in assay buffer. An 0.02% albumin stock consisted of HSA dissolved at 0.02% (w/v) in assay buffer.
# To make a membrane preparation the cells were grown to approximately 80% confluence. The cells were washed twice in phosphate-buffered saline and harvested. The cells were pelleted using a brief centrifugation and the cell pellet was kept on ice. The cell pellet was homogenised with ULTRA-THURRAX™ dispersing instrument for 20-30 seconds in a suitable amount of buffer 1 (e.g., 10 ml). The homogenate was centrifuged for 15 minutes. The pellet was re-suspended (homogenised) in 10 ml buffer 2 and centrifuged. This step was repeated once more. The resulting pellet was re-suspended in buffer 2 and the protein concentration was determined. The membranes were aliquoted and stored at minus 80° C.
# For the receptor binding assay in the presence of low HSA (0.005% (w/v)) 50 μl of the assay buffer was added to each well of an assay plate. Assay continued with step 3.
# For the receptor binding assay in the presence of high HSA (2% (w/v)) 50 μl of the 8% (w/v) albumin stock was added to each well of an assay plate. Assay continued with step 3.
# Cell membrane aliquots were thawed and diluted to their working concentration. Fifty μl were added to each well in the assay plate.
# WGA SPA beads were suspended in assay buffer at 20 mg/ml. The suspension was diluted to 10 mg/ml in assay buffer just prior to addition to the assay plate. Fifty μl were added to each well in the assay plate.
# A 25 μl aliquot was reserved for measuring total counts/well.
# The assay plate was incubated for 2 h at 30° C.
# The assay plate was centrifuged for 10 min.
# The assay plate was read in a Packard TopCount NXT instrument.
# Individual replicates were analysed using non-linear regression in GraphPad Prism. IC50 values were calculated by the software and reported in nM. A minimum of two replicates was measured for each sample. The reported values are averages of all of the measured values for each compound.
# [3] = high HSA (2.0% (w/v) final assay concentration), read-out: GLP-1 receptor binding High HSA IC50
# [4] = low HSA (max. 0.001% (w/v) final assay concentration), read-out: GLP-1 receptor binding Low HSA IC50
EC50 (human GLP-1 receptor [1]) [pM],IC50 (human GLP-1 receptor [2]; [3]) [pM],IC50 (human GLP-1 receptor [2]; [4]) [pM],Structure (SMILES)
8.1,116000,318,CC[C@H](C)[C@H](NC(=O)[C@H](Cc1ccccc1)NC(=O)[C@H](CCC(=O)O)NC(=O)[C@H](CCCNC(=N)N)NC(=O)[C@H](C)NC(=O)[C@H](C)NC(=O)[C@H](CCC(N)=O)NC(=O)[C@H](CCC(=O)O)NC(=O)[C@H](CCC(=O)O)NC(=O)[C@H](CC(C)C)NC(=O)[C@H](Cc1ccc(O)cc1)NC(=O)[C@H](CO)NC(=O)[C@H](CO)NC(=O)[C@@H](NC(=O)[C@H](CC(=O)O)NC(=O)[C@H](CO)NC(=O)[C@@H](NC(=O)[C@H](Cc1ccccc1)NC(=O)[C@@H](NC(=O)CNC(=O)[C@H](CCC(=O)O)NC(=O)C(C)(C)NC(=O)[C@@H](N)Cc1c[nH]cn1)[C@@H](C)O)[C@@H](C)O)C(C)C)C(=O)N[C@@H](C)C(=O)N[C@@H](Cc1c[nH]c2ccccc12)C(=O)N[C@@H](CC(C)C)C(=O)N[C@H](C(=O)N[C@@H](CCCNC(=N)N)C(=O)NCC(=O)N[C@@H](CCCCNC(=O)COCCOCCNC(=O)COCCOCCNC(=O)CC[C@H](NC(=O)CCCCCCCCCOc1cccc(C(=O)O)c1)C(=O)O)C(=O)N[C@@H](CCCCNC(=O)COCCOCCNC(=O)COCCOCCNC(=O)CC[C@H](NC(=O)CCCCCCCCCOc1cccc(C(=O)O)c1)C(=O)O)C(=O)O)C(C)C [Comparative 1A]
2.6,31500,744,CC[C@H](C)[C@H](NC(=O)[C@H](Cc1ccccc1)NC(=O)[C@H](CCC(=O)O)NC(=O)[C@H](CCCNC(=N)N)NC(=O)[C@H](C)NC(=O)[C@H](C)NC(=O)[C@H](CCC(N)=O)NC(=O)[C@H](CCC(=O)O)NC(=O)[C@H](CCC(=O)O)NC(=O)[C@H](CC(C)C)NC(=O)[C@H](Cc1ccc(O)cc1)NC(=O)[C@H](CO)NC(=O)[C@H](CO)NC(=O)[C@@H](NC(=O)[C@H](CC(=O)O)NC(=O)[C@H](CO)NC(=O)[C@@H](NC(=O)[C@H](Cc1ccccc1)NC(=O)[C@@H](NC(=O)CNC(=O)[C@H](CCC(=O)O)NC(=O)C(C)(C)NC(=O)[C@@H](N)Cc1c[nH]cn1)[C@@H](C)O)[C@@H](C)O)C(C)C)C(=O)N[C@@H](C)C(=O)N[C@@H](Cc1c[nH]c2ccccc12)C(=O)N[C@@H](CC(C)C)C(=O)N[C@H](C(=O)N[C@@H](CCCNC(=N)N)C(=O)NCC(=O)N[C@@H](CCCCNC(=O)COCCOCCNC(=O)COCCOCCNC(=O)COCCOCCNC(=O)COCCOCCNC(=O)CC[C@H](NC(=O)CCCCCCCCCCCCC(=O)O)C(=O)O)C(=O)N[C@@H](CCCCNC(=O)COCCOCCNC(=O)COCCOCCNC(=O)COCCOCCNC(=O)COCCOCCNC(=O)CC[C@H](NC(=O)CCCCCCCCCCCCC(=O)O)C(=O)O)C(=O)O)C(C)C [Comparative 7A]
16.8,108000,591,CC[C@H](C)[C@H](NC(=O)[C@H](Cc1ccccc1)NC(=O)[C@H](CCC(=O)O)NC(=O)[C@H](CCCNC(=N)N)NC(=O)[C@H](C)NC(=O)[C@H](C)NC(=O)[C@H](CCC(N)=O)NC(=O)[C@H](CCC(=O)O)NC(=O)[C@H](CCC(=O)O)NC(=O)[C@H](CC(C)C)NC(=O)[C@H](Cc1ccc(O)cc1)NC(=O)[C@H](CO)NC(=O)[C@H](CO)NC(=O)[C@@H](NC(=O)[C@H](CC(=O)O)NC(=O)[C@H](CO)NC(=O)[C@@H](NC(=O)[C@H](Cc1ccccc1)NC(=O)[C@@H](NC(=O)CNC(=O)[C@H](CCC(=O)O)NC(=O)C(C)(C)NC(=O)[C@@H](N)Cc1c[nH]cn1)[C@@H](C)O)[C@@H](C)O)C(C)C)C(=O)N[C@@H](C)C(=O)N[C@@H](Cc1c[nH]c2ccccc12)C(=O)N[C@@H](CC(C)C)C(=O)N[C@H](C(=O)N[C@@H](CCCNC(=N)N)C(=O)NCC(=O)N[C@@H](CCCNC(=N)N)C(=O)N[C@@H](CCCCNC(=O)[C@H](CCCCNC(=O)COCCOCCNC(=O)COCCOCCNC(=O)COCCOCCNC(=O)COCCOCCNC(=O)COCCOCCNC(=O)COCCOCCNC(=O)CC[C@H](NC(=O)[C@H]1CC[C@H](CNC(=O)CCCCCCCCCCCCCCCCCCC(=O)O)CC1)C(=O)O)NC(=O)COCCOCCNC(=O)COCCOCCNC(=O)COCCOCCNC(=O)COCCOCCNC(=O)COCCOCCNC(=O)COCCOCCNC(=O)CC[C@H](NC(=O)[C@H]1CC[C@H](CNC(=O)CCCCCCCCCCCCCCCCCCC(=O)O)CC1)C(=O)O)C(=O)O)C(C)C [Comparative 10A]
13.7,42300,536,CC[C@H](C)[C@H](NC(=O)[C@H](Cc1ccccc1)NC(=O)[C@H](CCC(=O)O)NC(=O)[C@H](CCCNC(=N)N)NC(=O)[C@H](C)NC(=O)[C@H](C)NC(=O)[C@H](CCC(N)=O)NC(=O)[C@H](CCC(=O)O)NC(=O)[C@H](CCC(=O)O)NC(=O)[C@H](CC(C)C)NC(=O)[C@H](Cc1ccc(O)cc1)NC(=O)[C@H](CO)NC(=O)[C@H](CO)NC(=O)[C@@H](NC(=O)[C@H](CC(=O)O)NC(=O)[C@H](CO)NC(=O)[C@@H](NC(=O)[C@H](Cc1ccccc1)NC(=O)[C@@H](NC(=O)CNC(=O)[C@H](CCC(=O)O)NC(=O)C(C)(C)NC(=O)[C@@H](N)Cc1c[nH]cn1)[C@@H](C)O)[C@@H](C)O)C(C)C)C(=O)N[C@@H](C)C(=O)N[C@@H](Cc1c[nH]c2ccccc12)C(=O)N[C@@H](CC(C)C)C(=O)N[C@H](C(=O)N[C@@H](CCCNC(=N)N)C(=O)NCC(=O)N[C@@H](CCCNC(=N)N)C(=O)N[C@@H](CCCCNC(=O)COCCOCCNC(=O)COCCOCCNC(=O)[C@H](CCCCNC(=O)COCCOCCNC(=O)COCCOCCNC(=O)COCCOCCNC(=O)COCCOCCNC(=O)CC[C@H](NC(=O)[C@H]1CC[C@H](CNC(=O)CCCCCCCCCCCCCCCCCCC(=O)O)CC1)C(=O)O)NC(=O)COCCOCCNC(=O)COCCOCCNC(=O)COCCOCCNC(=O)COCCOCCNC(=O)CC[C@H](NC(=O)[C@H]1CC[C@H](CNC(=O)CCCCCCCCCCCCCCCCCCC(=O)O)CC1)C(=O)O)C(=O)O)C(C)C [Comparative 12A]
14.7,35400,383,CC[C@H](C)[C@H](NC(=O)[C@H](Cc1ccccc1)NC(=O)[C@H](CCC(=O)O)NC(=O)[C@H](CCCNC(=N)N)NC(=O)[C@H](C)NC(=O)[C@H](C)NC(=O)[C@H](CCC(N)=O)NC(=O)[C@H](CCC(=O)O)NC(=O)[C@H](CCC(=O)O)NC(=O)[C@H](CC(C)C)NC(=O)[C@H](Cc1ccc(O)cc1)NC(=O)[C@H](CO)NC(=O)[C@H](CO)NC(=O)[C@@H](NC(=O)[C@H](CC(=O)O)NC(=O)[C@H](CO)NC(=O)[C@@H](NC(=O)[C@H](Cc1ccccc1)NC(=O)[C@@H](NC(=O)CNC(=O)[C@H](CCC(=O)O)NC(=O)C(C)(C)NC(=O)[C@@H](N)Cc1c[nH]cn1)[C@@H](C)O)[C@@H](C)O)C(C)C)C(=O)N[C@@H](C)C(=O)N[C@@H](Cc1c[nH]c2ccccc12)C(=O)N[C@@H](CC(C)C)C(=O)N[C@H](C(=O)N[C@@H](CCCNC(=N)N)C(=O)NCC(=O)N[C@@H](CCCNC(=N)N)C(=O)N[C@@H](CCCCNC(=O)COCCOCCNC(=O)COCCOCCNC(=O)CN(CCCNC(=O)COCCOCCNC(=O)COCCOCCNC(=O)COCCOCCNC(=O)COCCOCCNC(=O)CC[C@H](NC(=O)[C@H]1CC[C@H](CNC(=O)CCCCCCCCCCCCCCCCCCC(=O)O)CC1)C(=O)O)CCCNC(=O)COCCOCCNC(=O)COCCOCCNC(=O)COCCOCCNC(=O)COCCOCCNC(=O)CC[C@H](NC(=O)[C@H]1CC[C@H](CNC(=O)CCCCCCCCCCCCCCCCCCC(=O)O)CC1)C(=O)O)C(=O)O)C(C)C [Comparative 13A]
5.6,71000,–,CC[C@H](C)[C@H](NC(=O)[C@H](Cc1ccccc1)NC(=O)[C@H](CCC(=O)O)NC(=O)[C@H](CCCNC(=N)N)NC(=O)[C@H](C)NC(=O)[C@H](C)NC(=O)[C@H](CCC(N)=O)NC(=O)[C@H](CCC(=O)O)NC(=O)[C@H](CCC(=O)O)NC(=O)[C@H](CC(C)C)NC(=O)[C@H](Cc1ccc(O)cc1)NC(=O)[C@H](CO)NC(=O)[C@H](CO)NC(=O)[C@@H](NC(=O)[C@H](CC(=O)O)NC(=O)[C@H](CO)NC(=O)[C@@H](NC(=O)[C@H](Cc1ccccc1)NC(=O)[C@@H](NC(=O)CNC(=O)[C@H](CCC(=O)O)NC(=O)[C@H](Cc1c[nH]c2ccccc12)NC(=O)[C@@H](N)Cc1c[nH]cn1)[C@@H](C)O)[C@@H](C)O)C(C)C)C(=O)N[C@@H](C)C(=O)N[C@@H](Cc1c[nH]c2ccccc12)C(=O)N[C@@H](CC(C)C)C(=O)N[C@H](C(=O)N[C@@H](CCCNC(=N)N)C(=O)NCC(=O)N[C@@H](CCCCNC(=O)COCCOCCNC(=O)COCCOCCNC(=O)COCCOCCNC(=O)COCCOCCNC(=O)CC[C@H](NC(=O)CCCCCCCCCCCCC(=O)O)C(=O)O)C(=O)N[C@@H](CCCCNC(=O)COCCOCCNC(=O)COCCOCCNC(=O)COCCOCCNC(=O)COCCOCCNC(=O)CC[C@H](NC(=O)CCCCCCCCCCCCC(=O)O)C(=O)O)C(=O)O)C(C)C [Example 7] (H-HWEGTFTSDVSSYLEEQAAREFIAWLVRGK([AEEA-AEEA-AEEA-AEEA-γGlu-C14 diacid])K([AEEA-AEEA-AEEA-AEEA-γGlu-C14 diacid])-OH; N-terminus and C-terminus assumed)

# Reference: patent publication US10946074B2, “GLP-1 derivatives and uses thereof” (Novo Nordisk A/S, priority 2016, dated 2021)
